Measured values from US20090155367A1, “Occlusion of Fallopian Tubes” (priority 2005, published 2009).

Columns and labels:
[1] = system: beef muscle tissue (fillet mignon); test: Tissue necrosis with AgNO3 bearing beads placed on beef muscle tissue; set-up: key: +: slight visible pitting of the tissue surface; ++: moderate pitting of tissue surface with slight blackening of the tissue; +++: significant pitting with moderate blackening of the tissue; ++++: severe pitting with complete blackening of the tissue; +++++: severe pitting with complete blackening of the tissue, spreading beyond the point of contact; −−−: no observed necrosis; conditions: tissue under bead on beef muscle surface
Description: The degree of necrosis was rated as follows: slight visible pitting of the tissue surface (+); moderate pitting of tissue surface with slight blackening of the tissue (++); significant pitting with moderate blackening of the tissue (+++); severe pitting with complete blackening of the tissue (++++); severe pitting with complete blackening of the tissue, spreading beyond the point of contact (+++++); and no observed necrosis (−−−)

Fallopian tubes = conditions: even when massive tubal necrosis was achieved; cited from earlier work

## O=[N+]([O-])[O-].[Ag+] [AgNO3 Crystal, silver nitrate]
[1]; Time 5 minutes
  Tissue Necrosis (degree of necrosis): +++
[1]; Time 10 minutes
  Tissue Necrosis (degree of necrosis): ++++
[1]; Time 15 minutes
  Tissue Necrosis (degree of necrosis): +++++
[1]; Time 20 minutes
  Tissue Necrosis (degree of necrosis): +++++
Fallopian tubes
  Fallopian tube closure after application: a significant proportion of Fallopian tubes remained open
